The source of these data is patent US8445501B2, “Substituted 7-carboxamido-pyrrolo[3,2-d]pyrimidines” (Takeda GmbH, priority 2008, dated 2013).

This assay deals with T1, human PDE5 (Homo sapiens, UniProt O76074).
T1 construct: from tissue; host or cells: platelets from fresh blood of human donors (lysate, 10,000 g supernatant)
The experiment in a line: Inhibition of the type 5 phosphodiesterase (PDE5) activity, modified SPA test with platelet lysate. The format is biochemical. Conditions: PDE5 from human platelet lysate, 0.5 μM cGMP. In a few lines:
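Human platelet lysate (10,000 g supernatant) as PDE5 source in SPA with 0.5 μM cGMP plus [3H]cGMP tracer, pH 7.4, 5 mM Mg2+, 1 μM motapizone and 10 nM PDE2 inhibitor; 10–20% conversion. 5 min preincubation, 15 min at 37 °C, stopped with SPA beads/IBMX. IC50 by non-linear regression.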
As a reminder, the IC50 is the concentration needed to halve the response being measured. The low end stands for greater potency in that assay, the high end for weaker potency in that assay. In the case of `COc1ccc(-c2ncnc3c(C(=O)N[C@H]4CC[C@H](NC(=O)C5CC5)CC4)c[nH]c23)c(OCC2CC2)c1` [Example 52, trans-4-(2-Cyclopropylmethoxy-4-methoxy-phenyl)-5H-pyrrolo[3,2-d]pyrimidine-7-carboxylic acid [4-(cyclopropanecarbonyl-amino)cyclohexyl]-amide], the IC50 was 0.302 nM.
With `CCCCOc1ccc2c(c1-c1ncnc3c(C(=O)N[C@@H]4CCN(C(=O)CC)C4)c[nH]c13)OCO2` [Example 150, 4-(5-Butoxy-benzo[1,3]dioxol-4-yl)-5H-pyrrolo[3,2-d]pyrimidine-7-carboxylic acid ((R)-1-propionyl-pyrrolidin-3-yl)-amide] the figure was 0.389 nM; with `C[C@H](O)C(=O)N1CCC[C@@H](NC(=O)c2c[nH]c3c(-c4c(OCC5CC5)ccc5c4OCO5)ncnc23)C1` [Example 198, 4-(5-Cyclopropylmethoxy-benzo[1,3]dioxol-4-yl)-5H-pyrrolo[3,2-d]pyrimidine-7-carboxylic acid [(R)-1-((S)-2-hydroxy-propanoyl)piperidin-3-yl]-amide], 0.617 nM; with `O=CN1CC[C@H](NC(=O)c2c[nH]c3c(-c4c(OCC5CC5)ccc5c4OCO5)ncnc23)C1` [Example 18, 4-(5-Cyclopropylmethoxy-benzo[1,3]dioxol-4-yl)-5H-pyrrolo[3,2-d]pyrimidine-7-carboxylic acid ((S)-1-formyl-pyrrolidin-3-yl)-amide], 1.82 nM.
Take `COc1ccc(OCC2CC2)c(-c2ncnc3c(C(=O)NC4CCN(C(=O)CO)CC4)c[nH]c23)c1` [Example 211, 4-(2-Cyclopropylmethoxy-5-methoxy-phenyl)-5H-pyrrolo[3,2-d]pyrimidine-7-carboxylic acid [1-(2-hydroxy-acetyl)piperidin-4-yl]-amide]: the concentration for half-maximal inhibition (IC50) was 2.34 nM.
`O=C(N[C@H]1CC[C@H](C(=O)NC2CC2)CC1)c1c[nH]c2c(-c3c(OCC4CC4)ccc4c3OCO4)ncnc12` [Example 270, trans-4-(5-Cyclopropylmethoxy-benzo[1,3]dioxol-4-yl)-5H-pyrrolo[3,2-d]pyrimidine-7-carboxylic acid (4-cyclopropylcarbamoyl-cyclohexyl)-amide] had an IC50 of 0.191 nM.
With `CC(=O)N[C@H]1CC[C@@H](NC(=O)c2c[nH]c3c(-c4c(OCC5CC5)ccc5c4OCO5)ncnc23)CC1` [Example 7, cis-4-(5-Cyclopropylmethoxy-benzo[1,3]dioxol-4-yl)-5H-pyrrolo[3,2-d]pyrimidine-7-carboxylic acid (4-acetylamino-cyclohexyl)-amide] the figure was 0.214 nM.
As to `CCOC(=O)N1CCC(NC(=O)c2c[nH]c3c(-c4cc(OC)ccc4OCC4CC4)ncnc23)CC1` [Example 74, 4-{[4-(2-Cyclopropylmethoxy-5-methoxy-phenyl)-5H-pyrrolo[3,2-d]pyrimidine-7-carbonyl]-amino}-piperidine-1-carboxylic acid ethyl ester], the IC50 was 0.55 nM.
With `O=C(N[C@H]1CCN(C(=O)CO)C1)c1c[nH]c2c(-c3c(OCC4CC4)ccc4c3OCO4)ncnc12` [Example 183, 4-(5-Cyclopropylmethoxy-benzo[1,3]dioxol-4-yl)-5H-pyrrolo[3,2-d]pyrimidine-7-carboxylic acid [(S)-1-(2-hydroxy-ethanoyl)-pyrrolidin-3-yl]amide] the figure was 1.86 nM.
Consider `COCCNC(=O)[C@H]1CC[C@H](NC(=O)c2c[nH]c3c(-c4c(OCC5CC5)ccc5c4OCO5)ncnc23)CC1` [Example 269, trans-4-(5-Cyclopropylmethoxy-benzo[1,3]dioxol-4-yl)-5H-pyrrolo[3,2-d]pyrimidine-7-carboxylic acid [4-(2-methoxy-ethylcarbamoyl)-cyclohexyl]-amide], for which the midpoint of inhibition, the IC50, lay at 0.575 nM.
As for `COCC(=O)N[C@H]1CC[C@H](NC(=O)c2c[nH]c3c(-c4ccc(OC)cc4OCC4CC4)ncnc23)CC1` [Example 53, trans-4-(2-Cyclopropylmethoxy-4-methoxy-phenyl)-5H-pyrrolo[3,2-d]pyrimidine-7-carboxylic acid [4-(2-methoxy-acetylamino)-cyclohexyl]-amide], 0.372 nM corresponded to half-maximal inhibition (IC50). Against the preceding compound, the IC50 is about 1.5-fold lower.
The compound `O=C(NC1CCN(C(=O)C2(O)CC2)CC1)c1c[nH]c2c(-c3c(OCC4CC4)ccc4c3OCO4)ncnc12` [Example 179, 4-(5-Cyclopropylmethoxy-benzo[1,3]dioxol-4-yl)-5H-pyrrolo[3,2-d]pyrimidine-7-carboxylic acid {1-[1-(1-hydroxy-cyclopropyl)methanoyl]-piperidin-4-yl}-amide] showed an IC50 of 0.182 nM.
The result for `COc1cc(-c2ncnc3c(C(=O)N[C@@H]4CCN(C(=O)CO)C4)c[nH]c23)c(OCC2CC2)cc1F` [Example 231, 4-(2-Cyclopropylmethoxy-4-fluoro-5-methoxy-phenyl)-5H-pyrrolo[3,2-d]pyrimidine-7-carboxylic acid [(R)-1-(2-hydroxy-acetyl)-pyrrolidin-3-yl]amide] reads 0.692 nM.
The result for `COCC(=O)N1CC[C@@H](NC(=O)c2c[nH]c3c(-c4cc(F)c(OC)cc4OCC4CC4)ncnc23)C1` [Example 119, 4-(2-Cyclopropylmethoxy-5-fluoro-4-methoxy-phenyl)-5H-pyrrolo[3,2-d]pyrimidine-7-carboxylic acid [(R)-1-(2-methoxy-acetyl)-pyrrolidin-3-yl]amide] reads 1.2 nM; that for `C[C@H](O)C(=O)N1CCC(NC(=O)c2c[nH]c3c(-c4cc(F)ccc4OCC4CC4)ncnc23)CC1` [Example 221, 4-(2-Cyclopropylmethoxy-5-fluoro-phenyl)-5H-pyrrolo[3,2-d]pyrimidine-7-carboxylic acid [1-((S)-2-hydroxy-propionyl)piperidin-4-yl]-amide], 6.46 nM; that for `COc1ccc(OCC2CC2)c(-c2ncnc3c(C(=O)N[C@H]4CC[C@H](NC(=O)C5CC5)CC4)c[nH]c23)c1` [Example 64, trans-4-(2-Cyclopropylmethoxy-5-methoxy-phenyl)-5H-pyrrolo[3,2-d]pyrimidine-7-carboxylic acid [4-(cyclopropanecarbonyl-amino)cyclohexyl]-amide], 0.603 nM.
With `COc1ccc(OCC2CC2)c(-c2ncnc3c(C(=O)NC4CCN(C(=O)C5CC5)CC4)c[nH]c23)c1` [Example 72, 4-(2-Cyclopropylmethoxy-5-methoxy-phenyl)-5H-pyrrolo[3,2-d]pyrimidine-7-carboxylic acid (1-cyclopropanecarbonyl-piperidin-4-yl)-amide] the figure was 0.437 nM; with `CCOC(=O)N[C@H]1CC[C@@H](NC(=O)c2c[nH]c3c(-c4cc(OC)ccc4OCC4CC4)ncnc23)CC1` [Example 70, cis-(4-{[4-(2-Cyclopropylmethoxy-5-methoxy-phenyl)-5H-pyrrolo[3,2-d]pyrimidine-7-carbonyl]-amino}-cyclohexyl)-carbamic acid ethyl ester], 1.07 nM; with `COc1cc(OCC2CC2)c(-c2ncnc3c(C(=O)N[C@H]4CCCN(C(C)=O)C4)c[nH]c23)cc1F` [Example 116, 4-(2-Cyclopropylmethoxy-5-fluoro-4-methoxy-phenyl)-5H-pyrrolo[3,2-d]pyrimidine-7-carboxylic acid ((S)-1-acetyl-piperidin-3-yl)-amide], 3.09 nM.
On to `CCOc1ccc2c(c1-c1ncnc3c(C(=O)NC4CCN(C(=O)[C@H](C)O)CC4)c[nH]c13)OCO2` [Example 249, 4-(5-Ethoxy-benzo[1,3]dioxol-4-yl)-5H-pyrrolo[3,2-d]pyrimidine-7-carboxylic acid [1-((S)-2-hydroxy-propionyl)-piperidin-4-yl]-amide], for which the IC50 was 2.14 nM.
The result for `COc1ccc(-c2ncnc3c(C(=O)N[C@H]4CC[C@H](NC(=O)CO)CC4)c[nH]c23)c(OCC2CC2)c1` [Example 199, trans-4-(2-Cyclopropylmethoxy-4-methoxy-phenyl)-5H-pyrrolo[3,2-d]pyrimidine-7-carboxylic acid [4-(2-hydroxy-acetylamino)-cyclohexyl]-amide] reads 0.589 nM; that for `COc1cc(OCC2CC2)c(-c2ncnc3c(C(=O)N[C@H]4CC[C@H](NC(=O)C5(O)CC5)CC4)c[nH]c23)cc1F` [Example 235, trans-4-(2-Cyclopropylmethoxy-5-fluoro-4-methoxy-phenyl)-5H-pyrrolo[3,2-d]pyrimidine-7-carboxylic acid {4-[(1-hydroxy-cyclopropanecarbonyl)-amino]-cyclohexyl}-amide], 0.457 nM.
Compound `CCC(=O)N1CCC(NC(=O)c2c[nH]c3c(-c4c(OCC5CC5)ccc5c4OCO5)ncnc23)CC1` [Example 1, 4-(5-Cyclopropylmethoxy-1,3-benzodioxol-4-yl)-5H-pyrrolo[3,2-d]pyrimidine-7-carboxylic acid (1-propionyl-piperidin-4-yl)-amide] showed a half-inhibitory concentration (IC50) of 0.0776 nM.
With `COCC(=O)N1CCC[C@H](NC(=O)c2c[nH]c3c(-c4c(OCC5CC5)ccc5c4OCO5)ncnc23)C1` [Example 45, 4-(5-Cyclopropylmethoxy-benzo[1,3]dioxol-4-yl)-5H-pyrrolo[3,2-d]pyrimidine-7-carboxylic acid [(S)-1-(2-methoxy-ethanoyl)-piperidin-3-yl]amide] the figure was 1.55 nM; with `O=CN1CCC(CNC(=O)c2c[nH]c3c(-c4c(OCC5CC5)ccc5c4OCO5)ncnc23)C1` (centres unmarked) [Example 32, 4-(5-Cyclopropylmethoxy-benzo[1,3]dioxol-4-yl)-5H-pyrrolo[3,2-d]pyrimidine-7-carboxylic acid (1-formyl-pyrrolidin-3-ylmethyl)-amide], 1.1 nM; with `CC(=O)c1ccc(OCC2CC2)c(-c2ncnc3c(C(=O)NC4CCN(C(=O)[C@H](C)O)CC4)c[nH]c23)c1` [Example 264, 4-(5-Acetyl-2-cyclopropylmethoxy-phenyl)-5H-pyrrolo[3,2-d]pyrimidine-7-carboxylic acid [1-((S)-2-hydroxy-propanoyl)piperidin-4-yl]-amide], 0.219 nM.
